Test results: patent US20180263993A1, “METHOD FOR PREVENTING AND/OR TREATING CHRONIC TRAUMATIC ENCEPHALOPATHY-IV” (Eustralis Pharmaceuticals Limited (trading as Pressura …, priority 2013, published 2018)

Test system: tau phosphorylation
Experiment: Tau phosphorylation after concussive injury in the rat (phosphorylated tau immunohistology)
Type: in vivo
Conditions: rat concussion model; 1 mg/kg intravenously at 30 min after induction of injury; assessed 3 days after the concussive event; compared with injured and non-injured animals
Excerpt: Note that concussive injury in the rat causes extensive tau phosphorylation (B) by 3 days after the concussive event compared to non-injured animals (A).
Having established that hyperphosphorylated tau accumulates perivascularly following concussive injury, we used an animal model of concussion to investigate whether concussion causes perivascular release of substance P. We developed a rodent model of concussion to replicate the concussive event (Donkin et al., 2004, 7th International Neurotrauma Symposium, pp 75-78, Medimond Publishers, Bologna, Italy) and subsequently determined whether substance P was released after such an event. There was a clear increase in brain perivascular substance P immunoreactivity after the concussive event (FIG. 2).
Having shown that mechanical injury causes release of substance P after concussive injury, we then investigated whether a compound of formula (I) reduces tau hyperphosphorlation after concussive injury. […] Note that concussive injury in the rat causes extensive tau phosphorylation (B) by 3 days after the concussive event compared to non-injured animals (A). […] Thus, administration of a compound of formula (I) prevents tau hyperphosphorylation and thus prevents the development of CTE.

Cc1ccccc1-c1cc(N2CCOCC2)ncc1N(C)C(=O)C(C)(C)c1cc(C(F)(F)F)cc(C(F)(F)F)c1 [compound of formula (I), 2-[3,5-bis(trifluoromethyl)phenyl]-N,2-dimethyl-N-[4-(2-methylphenyl)-6-morpholin-4-ylpyridin-3-yl]propanamide]
effect on tau phosphorylation after concussive injury: almost complete inhibition of tau phosphorylation
